Assay: Mango-flavoured beverage evaluated by a panel of experienced tasters
Settings: 0.5 ppm dosed to mango drink (mango flavour 0.05% w/w, mango juice 0.18% w/w, sugar 8% w/w, citric acid 0.1% w/w)
Procedure: A mango-flavoured beverage was prepared using a standard mango flavour (0.05% w/w), mango juice (0.18% w/w), sugar (8% w/w) and citric acid (0.1% w/w).

CCCCC/C=C\C/C=C\CCCCCCCC(=O)N1CCCC1C(=O)OC (centres unmarked) [Example 6, Methyl 1-((9Z,12Z)-octadeca-9,12-dienoyl)pyrrolidine-2-carboxylate]
taste of the mango drink versus the reference drink (panel agreement): more fruity and peach-like than the reference drink

CC/C=C\C/C=C\C/C=C\CCCCCCCC(=O)NC(C)C(=O)OC (centres unmarked) [Example 7, Methyl 2-((9Z,12Z,15Z)-octadeca-9,12,15-trienamido)propanoate]
taste of the mango drink versus the reference drink (panel agreement): more fully, more fatty than the reference drink
